Results reported in patent publication US11666630B2, “Polypeptides for managing viral infections” (priority 2016, dated 2023).
“Also recorded” adds a separate entry of the source. Where two headings read alike, the source gives them in different places. Peptide text beside a SMILES is read from it.

Experiments:
[1] = test system: ZIKV; assay: Peptide treatment of Vero cells already infected with ZIKV, FFU assay of culture supernatants; format: cell-based, Zika virus; details: for ZIKV in culture supernatant: 3 hours post-infection, peptide 40 μM
[2] = test system: ZIKV (PRVABC59); assay: Immunofluorescence of ZIKV envelope in Vero cells; format: cell-based, Zika virus; details: ZIKV exposed to peptide before infection
[3] = test system: ZIKV; assay: ZIKV entry into Vero cells, viral RNA by qRT-PCR; details: ZIKV pre-incubated with 200 μM peptide
[4] = test system: ZIKV; assay: Transmission electron microscopy of peptide-treated ZIKV; details: 200 μM peptide, 10 min treatment
[5] = test system: ZIKV (PRVABC59 strain); details: for activity of truncated and mutant Yodha peptides against ZIKV compared with parent peptide: FIG. 7E; for reduction of ZIKV: dose escalation, FFA
[6] = test system: DENV 3; assay: FFA of DENV 3 incubated with peptide
[7] = test system: H1N1; format: cell-based, human influenza virus; details: incubated with virus at 37° C. for 1 hour, MDCK cells
[8] = test system: H3N2; format: cell-based, human influenza virus; details: incubated with virus at 37° C. for 1 hour, MDCK cells
[9] = test system: H1N2; format: cell-based, influenza virus
[10] = test system: H3N1; format: cell-based, influenza virus
[11] = test system: influenza viruses; format: cell-based, influenza virus
[12] = test system: H2 avian influenza hemagglutinin; format: binding; details: biotinylated Yodha peptide, streptavidin PE detection
[13] = test system: H5 avian influenza hemagglutinin; format: binding; details: biotinylated Yodha peptide, streptavidin PE detection
[14] = test system: H7 avian influenza hemagglutinin; format: binding; details: biotinylated Yodha peptide, streptavidin PE detection
[15] = test system: H9 avian influenza hemagglutinin; format: binding; details: biotinylated Yodha peptide, streptavidin PE detection
[16] = test system: Recombinant hemagglutinins from three H3 viruses; format: binding, influenza virus; details: biotinylated Yodha peptide, streptavidin PE detection
[17] = test system: Clade A HIV; assay: HIV inhibition, graded doses of peptide; format: cell-based; details: 40 uM peptide
Experimental: (§1) FIG. 10A. […] Clades A, B and C HIV viruses were exposed to graded doses (5 um-160 uM) of either Yodha peptide or control OVA peptide.

[18] = test system: Clade B HIV; assay: HIV inhibition, graded doses of peptide; format: cell-based; details: 40 uM peptide
Experimental: as §1

[19] = test system: Clade C HIV; assay: HIV inhibition, graded doses of peptide; format: cell-based; details: 40 uM peptide
Experimental: as §1

[20] = test system: DENV 1; assay: FFA of DENV 1 incubated with peptide
[21] = test system: DENV 2; assay: FFA of DENV 2 incubated with peptide
[22] = test system: DENV 4; assay: FFA of DENV 4 incubated with peptide
[23] = test system: PRVABC ZIKV; assay: ZIKV infection of anti-Ifnar1 mAb treated mice, viremia and viral burden by real time PCR

Compound: OVA257-264 peptide (ESIINFEK; UniProt P01012 257-264, looked up, fragment) [OVA peptide, reference compound]
- ZIKV in culture supernatant [1]: not detected
- expression of ZIKV envelope in Vero cells (immunofluorescence) [2]: no such effect
- amount of ZIKV RNA detected versus virus-only samples [3]: Comparable amounts
- morphology of ZIKV particles (electron microscopy) [4]: intact virions

Compound: SMLLLFFAGTISLSLCQDDQERC [peptide 8]
- virucidal activity of alanine-scanning mutants compared with Yodha peptide ([5]; Yodha set as zero, FIG. 6B): statistically significant (p=0.02) antiviral activity than the parental peptide

Compound: PMLLLFFLGTISLSLCQEEERGA [Variant 12]
- effect against ZIKV relative to Yodha peptide ([5]; FIG. 7C): 1.6 fold

Compound: PMLLLFFLGTISLSLCQDDQERC [S 1P Yodha]
- activity of truncated and mutant Yodha peptides against ZIKV compared with parent peptide [5]: significantly more effective

Compound: SMLLLFFLGTISLSLCQ [short Yodha peptide]
- activity of truncated and mutant Yodha peptides against ZIKV compared with parent peptide [5]: significantly improved activity

Compound: PMLLLFFLGTISLSLCQ [Short 12 peptide]
- activity of truncated and mutant Yodha peptides against ZIKV compared with parent peptide [5]: significantly improved activity
- efficiency against DENV3 infection compared with full length Yodha peptide ([6]; dose escalation): more efficient

Compound: CC[C@H](C)[C@H](NC(=O)[C@@H](NC(=O)CNC(=O)[C@H](CC(C)C)NC(=O)[C@H](Cc1ccccc1)NC(=O)[C@H](Cc1ccccc1)NC(=O)[C@H](CC(C)C)NC(=O)[C@H](CC(C)C)NC(=O)[C@H](CC(C)C)NC(=O)[C@H](CCSC)NC(=O)[C@@H](N)CO)[C@@H](C)O)C(=O)N[C@@H](CO)C(=O)N[C@@H](CC(C)C)C(=O)N[C@@H](CO)C(=O)N[C@@H](CC(C)C)C(=O)N[C@@H](CS)C(=O)N[C@@H](CCC(N)=O)C(=O)N[C@@H](CC(=O)O)C(=O)N[C@@H](CC(=O)O)C(=O)N[C@@H](CCC(N)=O)C(=O)N[C@@H](CCC(=O)O)C(=O)N[C@@H](CCCNC(=N)N)C(=O)N[C@@H](CS)C(=O)O [Yodha peptide] (H-SMLLLFFLGTISLSLCQDDQERC-OH; N-terminus and C-terminus assumed)
- reduction in ZIKV production ([1]; 48 and 72 hours post-infection, peptide 40 μM added after infection): 60-70%
- ZIKV in culture supernatant [1]: not detected
- ZIKV titers in the supernatants ([1]; peptide 40 μM added after infection): significantly reduced
- expression of ZIKV envelope in Vero cells (immunofluorescence) [2]: decreased expression of ZIKV envelope
- virucidal activity against H1N1 [7]: virucidal; also recorded: neutralizes
- virucidal activity against H3N2 [8]: virucidal; also recorded: neutralizes
- virucidal activity against H1N2 [9]: virucidal
- virucidal activity against H3N1 [10]: virucidal
- activity against subtypes of influenza viruses [11]: effective against all subtypes of influenza viruses; also recorded: effective against may subtypes of influenza viruses
- binding to H2 hemagglutinin [12]: binds
- binding to H5 hemagglutinin [13]: binds
- binding to H7 hemagglutinin [14]: binds
- binding to H9 hemagglutinin [15]: binds
- binding to HA from H3 viruses [16]: binds
- inhibition of clade A HIV [17]: efficiently inhibited
- inhibition of clade B HIV [18]: efficiently inhibited
- inhibition of clade C HIV [19]: efficiently inhibited
- time of exposure to virus within which the virus is neutralized [5]: ≤ 5 min
- reduction of ZIKV ([5]; 10 μM peptide): 35%
- reduction of ZIKV ([5]; 20 μM peptide): 50%
- reduction of ZIKV ([5]; 40 μM peptide): 65%
- reduction of ZIKV ([5]; 80 μM peptide): 80%
- reduction of ZIKV ([5]; 160 μM peptide): 90%
- IC50 ([5]; PRVABC59 strain, 2 h): 20 µM
- virucidal activity against DENV 1 [20]: virucidal; also recorded: neutralizes
- neutralization of DENV 1 ([20]; 50 μM peptide): easily neutralized; also recorded: effective
- virucidal activity against DENV 2 [21]: virucidal; also recorded: neutralizes
- neutralization of DENV 2 ([21]; 50 μM peptide): easily neutralized; also recorded: effective
- virucidal activity against DENV 3 [6]: virucidal; also recorded: neutralizes
- dose needed for neutralization of DENV 3 ([6]; 50 μM versus 160 μM peptide): required higher dose
- higher dose required to be effective against DENV 4 [22]: 160 µM
- virucidal activity against DENV 4 [22]: virucidal; also recorded: neutralizes
- neutralization of DENV 4 ([22]; 50 μM peptide): easily neutralized; also recorded: effective
- morphology of ZIKV particles (electron microscopy) [4]: disruption of viral particles
- ZIKV viremia in serum ([23]; day 3 post-infection): reduces
- ZIKV viral burden in tissues ([23]; day 6, eye and spleen): reduces
